Assay [1] has as its system human chymotrypsin (Chtr). Kind of assay: Km of chymotrypsin for its fluorogenic substrate (used for ka correction, eq 2). Type of assay: biochemical. Particulars: substrate Suc-AAPF-AMC, kinetics in 50 mM Tris pH 7.5, 150 mM NaCl, 0.05% Triton X-100, 0.01% BSA, 25° C. The source says:
(§1) hK2 and hK3 (PSA) were purified from human semen as previously described (Frenette G, Gervais Y, Tremblay R R, Dube J Y. 1998 “Contamination of purified prostate-specific antigen preparations by kallikrein hK2” J Urol 159, 1375-8), anti-hK2 and anti-PSA monoclonal antibodies were a gift from Professor R R Tremblay, Laval University, Canada. Human chymotrypsin (Chtr), urokinase plasminogen activator (uPA), human kallikrein hK1, human plasma kallikrein (PK), human neutrophil elastase (HNE) and commercial ACT (human plasma α1-antichymotrypsin) were purchased from Calbiochem. […]
(§2) The association rate constants for interactions of hK2, chymotrypsin, PK and HNE with different rACTs were determined under pseudo-first order conditions using the progress curve method (Morrison J F, Walsh C T. 1988 “The behavior and significance of slow-binding enzyme inhibitors” Adv. Enzymol. Relat. Areas Mol. Biol 61, 201-301). […] Each reaction was made in reaction buffer (50 mM Tris pH 7.5, 150 mM NaCl, 0.05% Triton X-100, 0.01% BSA) at 25° C. for 45 min and the rate of product formation was measured using a FLx800 fluorescence 96-well microplate reader (Biotek, USA). […]
(§3) For each inhibitor, a kobs was calculated, for four different concentrations of inhibitors, by non linear regression of the data using equation 1. […]

For assay [2], the target named is T1, human neutrophil elastase (HNE) (Homo sapiens, UniProt P08246).
T1 construct: substrate MeOSuc-AAPV-AMC
T1 sequence (P08246 30-267): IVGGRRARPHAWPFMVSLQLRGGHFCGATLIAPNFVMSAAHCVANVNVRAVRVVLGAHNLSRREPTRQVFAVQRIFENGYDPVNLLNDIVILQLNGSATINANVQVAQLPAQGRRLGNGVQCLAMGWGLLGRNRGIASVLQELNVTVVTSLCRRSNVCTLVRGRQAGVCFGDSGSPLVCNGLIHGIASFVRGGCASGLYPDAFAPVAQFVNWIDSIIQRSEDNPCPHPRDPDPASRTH
Kind of assay: Km of HNE for its fluorogenic substrate (used for ka correction, eq 2). The assay is classed as biochemical. The note with it: substrate MeOSuc-AAPV-AMC, kinetics in 50 mM Tris pH 7.5, 150 mM NaCl, 0.05% Triton X-100, 0.01% BSA, 25° C.
Text: as §1, §2, §3

*1 amine or outer side, *2 acyl side, *3 side chain or, on linkers, in order; H or OH if unused. Where a SMILES comes first, the peptide text is derived from it. The star is where a group is joined. AMC = Cc1cc(=O)oc2cc(N*)ccc12; Suc = O=C(CCC(=O)[*:2])[*:1]; MeOSuc = COC(=O)CCC(=O)*

As for `Cc1cc(=O)oc2cc(NC(=O)[C@H](Cc3ccccc3)NC(=O)[C@@H]3CCCN3C(=O)[C@H](C)NC(=O)[C@H](C)NC(=O)CCC(=O)O)ccc12` [Suc-AAPF-AMC, Suc-Ala-Ala-Pro-Phe-AMC] (Suc-AAPF-{AMC}), the Km in assay [1] was determined as 145 µM.
In the case of `COC(=O)CCC(=O)N[C@@H](C)C(=O)N[C@@H](C)C(=O)N1CCC[C@H]1C(=O)N[C@H](C(=O)Nc1ccc2c(C)cc(=O)oc2c1)C(C)C` [MeOSuc-AAPV-AMC, MeOSuc-Ala-Ala-Pro-Val-AMC] (MeOSuc-AAPV-{AMC}), in assay [2], the Km worked out at 130 µM.
